For CCS(=O)(=O)c1cccnc1S(=O)(=O)NC(=O)Nc1nc(OC)cc(OC)n1, the solubility (mole fraction) (in DMF, 278.15 K) was 5.64e-05, the solubility (mole fraction) (in DMF, 283.15 K) was 7.09e-05 and the solubility (mole fraction) (in DMF, 288.15 K) was 8.7e-05. The solubility (mole fraction) (in DMF, 293.15 K) was 0.000106, the solubility (mole fraction) (in DMF, 298.15 K) was 0.000125 and the solubility (mole fraction) (in DMF, 303.15 K) was 0.000148. The solubility (mole fraction) (in DMF, 308.15 K) was 0.000172, the solubility (mole fraction) (in DMF, 313.15 K) was 0.000199 and the solubility (mole fraction) (in DMF, 318.15 K) was 0.000228. For the same molecule, the solubility (mole fraction) (in DMF, 323.15 K) was 0.000262, the solubility (mole fraction) (in ethanol, 278.15 K) was 1.91e-05 and the solubility (mole fraction) (in ethanol, 283.15 K) was 2.32e-05. It also gave a solubility (mole fraction) (in ethanol, 288.15 K) of 2.82e-05, a solubility (mole fraction) (in ethanol, 293.15 K) of 3.4e-05 and a solubility (mole fraction) (in ethanol, 298.15 K) of 4.03e-05. It also gave a solubility (mole fraction) (in ethanol, 303.15 K) of 4.76e-05, a solubility (mole fraction) (in ethanol, 308.15 K) of 5.52e-05 and a solubility (mole fraction) (in ethanol, 313.15 K) of 6.36e-05. The solubility (mole fraction) (in ethanol, 318.15 K) was 7.34e-05, the solubility (mole fraction) (in ethanol, 323.15 K) was 8.5e-05 and the solubility (mole fraction) (in ethylene glycol, 278.15 K) was 7.03e-06. The solubility (mole fraction) (in ethylene glycol, 283.15 K) was 8.83e-06, the solubility (mole fraction) (in ethylene glycol, 288.15 K) was 1.07e-05 and the solubility (mole fraction) (in ethylene glycol, 293.15 K) was 1.28e-05. It also gave a solubility (mole fraction) (in ethylene glycol, 298.15 K) of 1.53e-05, a solubility (mole fraction) (in ethylene glycol, 303.15 K) of 1.79e-05 and a solubility (mole fraction) (in ethylene glycol, 308.15 K) of 2.08e-05. For the same molecule, the solubility (mole fraction) (in ethylene glycol, 313.15 K) was 2.38e-05, the solubility (mole fraction) (in ethylene glycol, 318.15 K) was 2.76e-05 and the solubility (mole fraction) (in ethylene glycol, 323.15 K) was 3.19e-05. The solubility (mole fraction) (in methanol, 278.15 K) was 2.17e-05, the solubility (mole fraction) (in methanol, 283.15 K) was 2.67e-05 and the solubility (mole fraction) (in methanol, 288.15 K) was 3.26e-05. The solubility (mole fraction) (in methanol, 293.15 K) was 3.96e-05, the solubility (mole fraction) (in methanol, 298.15 K) was 4.7e-05 and the solubility (mole fraction) (in methanol, 303.15 K) was 5.5e-05. For the same molecule, the solubility (mole fraction) (in methanol, 308.15 K) was 6.37e-05, the solubility (mole fraction) (in methanol, 313.15 K) was 7.48e-05 and the solubility (mole fraction) (in methanol, 318.15 K) was 8.56e-05. The solubility (mole fraction) (in methanol, 323.15 K) was 9.85e-05, the solubility (mole fraction) (in water, 278.15 K) was 2.28e-07 and the solubility (mole fraction) (in water, 283.15 K) was 2.82e-07. It also gave a solubility (mole fraction) (in water, 288.15 K) of 3.44e-07, a solubility (mole fraction) (in water, 293.15 K) of 4.13e-07 and a solubility (mole fraction) (in water, 298.15 K) of 4.88e-07. For the same molecule, the solubility (mole fraction) (in water, 303.15 K) was 5.76e-07, the solubility (mole fraction) (in water, 308.15 K) was 6.77e-07 and the solubility (mole fraction) (in water, 313.15 K) was 7.75e-07. The solubility (mole fraction) (in water, 318.15 K) was 8.96e-07 and the solubility (mole fraction) (in water, 323.15 K) was 1.02e-06.

— BigSolDB 2.1
